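Each compound was tested at five concentrations against cells in 96-well plates for 48 hours. GI50 marks 50% less growth.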 Calls of active or inactive are those of the source. Cut-off read from the data, not from the text of the source: active = GI50 up to about 1.1 µM and inactive = higher.
How the values were obtained:
Test in all cases: inhibition of tumour cell growth, NCI panel, 48 h
CAKI-1 = system: CAKI-1
Malme-3M = system: Malme-3M
SK-MEL-28 = system: SK-MEL-28
HL-60 = system: HL-60
LOX IMVI = system: LOX IMVI
NCI-H226 = system: NCI-H226
TK-10 = system: TK-10
OVCAR-3 = system: OVCAR-3
UACC-62 = system: UACC-62
SNB-78 = system: SNB-78
CCRF-CEM = system: CCRF-CEM
COLO 205 = system: COLO 205
RXF 631 = system: RXF 631
HCC 2998 = system: HCC 2998
NCI-H522 = system: NCI-H522
786-0 = system: 786-0
HCT-15 = system: HCT-15
LXFL 529 = system: LXFL 529
HCT-116 = system: HCT-116
IGROV-1 = system: IGROV-1
K562 = system: K562
SF-295 = system: SF-295
SF-539 = system: SF-539
UO-31 = system: UO-31
U-251 = system: U-251
SK-MEL-5 = system: SK-MEL-5
HOP-18 = system: HOP-18
M19-MEL = system: M19-MEL
RXF 393 = system: RXF 393
DLD-1 = system: DLD-1
SK-OV-3 = system: SK-OV-3
SF-268 = system: SF-268
MOLT-4 = system: MOLT-4
SW-620 = system: SW-620
UACC-257 = system: UACC-257
SNB-19 = system: SNB-19
SR = system: SR
OVCAR-5 = system: OVCAR-5
OVCAR-8 = system: OVCAR-8
HOP-92 = system: HOP-92
ACHN = system: ACHN
HOP-62 = system: HOP-62
A498 = system: A498
DMS-273 = system: DMS-273
NCI-H460 = system: NCI-H460
SK-MEL-2 = system: SK-MEL-2
KM12 = system: KM12
A549 = system: A549
OVCAR-4 = system: OVCAR-4
KM-20L2 = system: KM-20L2
DMS-114 = system: DMS-114
RPMI-8226 = system: RPMI-8226
SN12C = system: SN12C
M14 = system: M14
HT-29 = system: HT-29
SNB-75 = system: SNB-75

## S=C1CNC(=S)CN1
CAKI-1
  GI50: > 100 µM (inactive)
Malme-3M
  GI50: > 100 µM (inactive)
SK-MEL-28
  GI50: > 100 µM (inactive)
HL-60
  GI50: > 100 µM (inactive)
LOX IMVI
  GI50: > 100 µM (inactive)
NCI-H226
  GI50: > 100 µM (inactive)
TK-10
  GI50: > 100 µM (inactive)
OVCAR-3
  GI50: > 100 µM (inactive)
UACC-62
  GI50: > 100 µM (inactive)
SNB-78
  GI50: > 100 µM (inactive)
CCRF-CEM
  GI50: > 100 µM (inactive)
COLO 205
  GI50: > 100 µM (inactive)
RXF 631
  GI50: > 100 µM (inactive)
HCC 2998
  GI50: > 100 µM (inactive)
NCI-H522
  GI50: > 100 µM (inactive)
786-0
  GI50: > 100 µM (inactive)
HCT-15
  GI50: > 100 µM
LXFL 529
  GI50: > 100 µM (inactive)
HCT-116
  GI50: > 100 µM (inactive)
IGROV-1
  GI50: > 100 µM (inactive)
K562
  GI50: > 100 µM (inactive)
SF-295
  GI50: > 100 µM (inactive)
SF-539
  GI50: > 100 µM (inactive)
UO-31
  GI50: > 100 µM (inactive)
U-251
  GI50: > 100 µM (inactive)
SK-MEL-5
  GI50: > 100 µM (inactive)
HOP-18
  GI50: > 100 µM (inactive)
M19-MEL
  GI50: > 100 µM (inactive)
RXF 393
  GI50: > 100 µM (inactive)
DLD-1
  GI50: > 100 µM (inactive)
SK-OV-3
  GI50: > 100 µM (inactive)
SF-268
  GI50: > 100 µM (inactive)
MOLT-4
  GI50: > 100 µM (inactive)
SW-620
  GI50: > 100 µM (inactive)
UACC-257
  GI50: > 100 µM (inactive)
SNB-19
  GI50: > 100 µM (inactive)
SR
  GI50: > 100 µM (inactive)
OVCAR-5
  GI50: > 100 µM (inactive)
OVCAR-8
  GI50: > 100 µM (inactive)
HOP-92
  GI50: > 100 µM (inactive)
ACHN
  GI50: > 100 µM (inactive)
HOP-62
  GI50: > 100 µM (inactive)
A498
  GI50: > 100 µM (inactive)
DMS-273
  GI50: > 100 µM (inactive)
NCI-H460
  GI50: > 100 µM (inactive)
SK-MEL-2
  GI50: > 100 µM (inactive)
KM12
  GI50: > 100 µM (inactive)
A549
  GI50: > 100 µM (inactive)
OVCAR-4
  GI50: > 100 µM (inactive)
KM-20L2
  GI50: > 100 µM (inactive)
DMS-114
  GI50: > 100 µM (inactive)
RPMI-8226
  GI50: > 100 µM (inactive)
SN12C
  GI50: > 100 µM (inactive)
M14
  GI50: > 100 µM (inactive)
HT-29
  GI50: > 100 µM (inactive)
SNB-75
  GI50: > 100 µM (inactive)

Reference: ChEMBL document CHEMBL1201862, “PubChem BioAssay data set” (2004)
